Assay results as given in patent publication US9567304B2, “Quinazolinedione derivative” (Chugai Seiyaku Kabushiki Kaisha, priority 2012, dated 2017).

Test system: human endometrial cancer cell line MFE-280
Assay: Measurement of antitumor effect in MFE-280 cancer-bearing mice
Type: in vivo
Conditions: 200 mg/kg, orally once daily, MFE-280 subcutaneous xenograft in BALB/c nude mice, 11th day after start of administration

Compound: CCS(=O)(=O)c1ccc(Cl)cc1Cn1c(=O)[nH]c2c(Cl)c(CN3CCNCC3)c(C(F)(F)F)cc2c1=O [Compound F-1, 8-Chloro-3-(5-chloro-2-ethanesulfonyl-benzyl)-7-piperazin-1-ylmethyl-6-trifluoromethyl-1H-quinazoline-2,4-dione]
- Antitumor effect TGI after 11 days (%): 61%
